Results taken from the supplement of paper PMC10307832.

Assays:
Assay in all cases: relative viability (nuclei count vs DMSO), 5 days (fraction); higher = more cells survive
XMD14-99 + Lapatinib = compound: CN1CCN(CC1)C2=CC(=C(C=C2)NC3=NC(=C(S3)C(=O)C4=C(C=CC=C4Cl)Cl)N)OC [XMD14-99] + CS(=O)(=O)CCNCc1ccc(-c2ccc3ncnc(Nc4ccc(OCc5cccc(F)c5)c(Cl)c4)c3c2)o1 [Lapatinib] (partner 2 µM)
How it was run: (§1)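 Lung cancer cell lines in 1536-well plates got either a single drug or a fixed anchor-drug dose together with five library-drug doses (not always all listed) in √10 steps, by pin tool, on the day after seeding. Nuclei were counted after 5 days, and relative viability is the treated-to-vehicle ratio of nuclei counts. Values are medians of duplicate plates.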

AZD1208 + Crizotinib = compound: N[C@@H]1CCCN(c2c(/C=C3\SC(=O)NC3=O)cccc2-c2ccccc2)C1 [AZD1208] + C[C@@H](Oc1cc(-c2cnn(C3CCNCC3)c2)cnc1N)c1c(Cl)ccc(F)c1Cl [Crizotinib] (partner 1 µM)
How it was run: as §1

AZD1208 + Decitabine = compound: N[C@@H]1CCCN(c2c(/C=C3\SC(=O)NC3=O)cccc2-c2ccccc2)C1 [AZD1208] + Nc1ncn([C@H]2C[C@H](O)[C@@H](CO)O2)c(=O)n1 [Decitabine] (partner 2 µM)
How it was run: as §1

AZD1208 + Olaparib = compound: N[C@@H]1CCCN(c2c(/C=C3\SC(=O)NC3=O)cccc2-c2ccccc2)C1 [AZD1208] + O=C(c1cc(Cc2n[nH]c(=O)c3ccccc23)ccc1F)N1CCN(C(=O)C2CC2)CC1 [Olaparib] (partner 8 µM)
How it was run: as §1

Row | Cell Line | relative viability (XMD14-99 + Lapatinib; first compound 0.08 µM) | relative viability (XMD14-99 + Lapatinib; first compound 0.8 µM) | relative viability (XMD14-99 + Lapatinib; first compound 2.53 µM) | relative viability (XMD14-99 + Lapatinib; first compound 8 µM) | relative viability (AZD1208 + Crizotinib; first compound 0.08 µM) | relative viability (AZD1208 + Crizotinib; first compound 0.253 µM) | relative viability (AZD1208 + Crizotinib; first compound 0.8 µM) | relative viability (AZD1208 + Crizotinib; first compound 2.53 µM) | relative viability (AZD1208 + Crizotinib; first compound 8 µM) | relative viability (AZD1208 + Decitabine; first compound 0.08 µM) | relative viability (AZD1208 + Decitabine; first compound 0.253 µM) | relative viability (AZD1208 + Decitabine; first compound 0.8 µM) | relative viability (AZD1208 + Decitabine; first compound 2.53 µM) | relative viability (AZD1208 + Decitabine; first compound 8 µM) | relative viability (AZD1208 + Olaparib; first compound 0.08 µM) | relative viability (AZD1208 + Olaparib; first compound 0.253 µM) | relative viability (AZD1208 + Olaparib; first compound 0.8 µM) | relative viability (AZD1208 + Olaparib; first compound 2.53 µM) | relative viability (AZD1208 + Olaparib; first compound 8 µM)
1 | 201T | 1.02 | 1.05 | 1 | 0.936 | 1 | 1.08 | 1.06 | 1.11 | 1.14 | 0.886 | 0.868 | 0.855 | 0.97 | 0.893 | 0.876 | 0.84 | 0.866 | 0.868 | 0.909
2 | A549 | 0.857 | 0.923 | 0.983 | 0.685 | 0.819 | 0.847 | 0.54 | 0.661 | 0.541 | 0.238 | 0.301 | 0.218 | 0.314 | 0.17 | 0.345 | 0.38 | 0.306 | 0.261 | 0.235
3 | A-427 | 1.14 | 0.984 | 0.999 | 0.898 | 0.888 | 0.974 | 0.797 | 0.851 | 0.767 | 0.541 | 0.568 | 0.528 | 0.508 | 0.448 | 0.674 | 0.758 | 0.605 | 0.713 | 0.661
4 | ABC-1 | 1.05 | 1.18 | 1.17 | 1.05 | 1.03 | 1.23 | 1.11 | 1.09 | 1.11 | 0.926 | 1.07 | 0.992 | 0.989 | 0.821 | 0.623 | 0.813 | 0.56 | 1.17 | 0.759
5 | BEN | 0.738 | 0.825 | 0.661 | 0.627 | 0.729 | 0.825 | 0.611 | 0.639 | 0.402 | 0.779 | 0.577 | 0.653 | 0.653 | 0.564 | 1.01 | 0.985 | 0.722 | 0.758 | 0.59
6 | CAL-12T | 0.603 | 0.549 | 0.545 | 0.547 | 0.745 | 0.838 | 0.718 | 0.85 | 0.471 | – | – | – | – | – | 0.81 | 0.737 | 0.633 | 0.711 | 0.797
7 | COR-L23 | 0.906 | 0.924 | 0.931 | 0.517 | 0.741 | 0.661 | 0.699 | 0.725 | 0.647 | 0.439 | 0.502 | 0.412 | 0.396 | 0.395 | 0.307 | 0.354 | 0.372 | 0.304 | 0.321
8 | COR-L 105 | 0.404 | 0.293 | 0.354 | 0.32 | 0.806 | 0.766 | 0.717 | 0.881 | 0.68 | 0.734 | 0.672 | 0.633 | 0.628 | 0.538 | 0.702 | 0.586 | 0.661 | 0.736 | 0.594
9 | Calu-6 | 0.996 | 0.934 | 0.936 | 0.735 | 0.615 | 0.952 | 0.672 | 0.711 | 0.758 | – | – | – | – | – | 0.572 | 0.648 | 0.591 | 0.592 | 0.639
